Data taken from the NIST ThermoML archive (doi:10.1021/je0400052).

Assays:
[1] = xn = mol fraction of the nth substance listed; conditions: 101.3 kPa, Liquid
[2] = refractive index (Na D-line) (dimensionless); xn = mol fraction of the nth substance listed; conditions: 101.3 kPa, Liquid

CCOC(=O)c1ccccc1 [ethyl benzoate] + Cc1cccc(C)c1
Conditions | mass density, [1] [kg/m3] | refractive index, [2] | viscosity, [1] [mPa·s]
303.15 K, x1 = 0.0887 | 871.6 | 1.4946 | 0.612
303.15 K, x1 = 0.1713 | 887.2 | 1.4957 | 0.676
303.15 K, x1 = 0.2626 | 905.2 | 1.4964 | 0.759
303.15 K, x1 = 0.3553 | 926 | 1.497 | 0.837
303.15 K, x1 = 0.4588 | 946.8 | 1.4974 | 0.931
303.15 K, x1 = 0.5707 | 966.5 | 1.499 | 1.055
303.15 K, x1 = 0.6576 | 981.7 | 1.4995 | 1.161
303.15 K, x1 = 0.7831 | 1002.2 | 1.5003 | 1.352
303.15 K, x1 = 0.8832 | 1018.5 | 1.5011 | 1.5
313.15 K, x1 = 0.0887 | 857.3 | 1.4917 | 0.547
313.15 K, x1 = 0.1713 | 875 | 1.4925 | 0.601
313.15 K, x1 = 0.2626 | 895.5 | 1.4939 | 0.664
313.15 K, x1 = 0.3553 | 917.5 | 1.4955 | 0.732
313.15 K, x1 = 0.4588 | 937.2 | 1.4963 | 0.809
313.15 K, x1 = 0.5707 | 966.5 | 1.4979 | 0.91
313.15 K, x1 = 0.6576 | 971.7 | 1.4984 | 0.997
313.15 K, x1 = 0.7831 | 993.7 | 1.4988 | 1.146
313.15 K, x1 = 0.8832 | 1009.8 | 1.4993 | 1.274

CCOC(=O)c1ccccc1 [ethyl benzoate] + Cc1ccccc1C
Conditions | mass density, [1] [kg/m3] | refractive index, [2] | viscosity, [1] [mPa·s]
303.15 K, x1 = 0.0847 | 887.3 | 1.4994 | 0.758
303.15 K, x1 = 0.1749 | 904.2 | 1.4996 | 0.837
303.15 K, x1 = 0.2686 | 920.9 | 1.4999 | 0.909
303.15 K, x1 = 0.3579 | 937.5 | 1.5001 | 1
303.15 K, x1 = 0.4613 | 954 | 1.5007 | 1.085
303.15 K, x1 = 0.56 | 972.3 | 1.5009 | 1.19
303.15 K, x1 = 0.6668 | 988.1 | 1.501 | 1.312
303.15 K, x1 = 0.7675 | 1001.3 | 1.5011 | 1.433
303.15 K, x1 = 0.8768 | 1021.1 | 1.5013 | 1.566
313.15 K, x1 = 0.0847 | 879.3 | 1.4983 | 0.676
313.15 K, x1 = 0.1749 | 896.1 | 1.4986 | 0.732
313.15 K, x1 = 0.2686 | 913.1 | 1.4989 | 0.8
313.15 K, x1 = 0.3579 | 930.2 | 1.4993 | 0.864
313.15 K, x1 = 0.4613 | 945.7 | 1.4995 | 0.937
313.15 K, x1 = 0.56 | 963.8 | 1.4997 | 1.015
313.15 K, x1 = 0.6668 | 980.8 | 1.4999 | 1.113
313.15 K, x1 = 0.7675 | 992.7 | 1.5001 | 1.208
313.15 K, x1 = 0.8768 | 1010.9 | 1.5003 | 1.31
